Experimental data reported in ChEMBL document CHEMBL1201862, “PubChem BioAssay data set” (2004).
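96-well plates; 48 h exposure; 5 concentrations. Endpoints by linear interpolation between flanking doses. Not reached: highest tested concentration assigned. GI50 marks 50% less growth.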 Activity calls are given as the source filed them. No stated cut-off is given here; in the data, active = GI50 up to about 1.1 µM and inactive = higher.

How the values were obtained:
Assay in all cases: NCI tumour cell line growth inhibition, 48 h
[1] = test system: PC-3
[2] = test system: HCT-15
[3] = test system: SK-MEL-5
[4] = test system: MDA-MB-231
[5] = test system: CCRF-CEM
[6] = test system: K562
[7] = test system: Malme-3M
[8] = test system: MOLT-4
[9] = test system: NCI-H460
[10] = test system: EKVX
[11] = test system: U-251
[12] = test system: HT-29
[13] = test system: OVCAR-4
[14] = test system: HCC 2998
[15] = test system: MDA-N
[16] = test system: NCI-H226
[17] = test system: UACC-62
[18] = test system: MCF7
[19] = test system: NCI-H522
[20] = test system: KM12
[21] = test system: A549
[22] = test system: SK-MEL-28
[23] = test system: RPMI-8226
[24] = test system: A498
[25] = test system: SW-620
[26] = test system: SNB-19
[27] = test system: OVCAR-8
[28] = test system: LOX IMVI
[29] = test system: ACHN
[30] = test system: MDA-MB-435
[31] = test system: TK-10
[32] = test system: UACC-257
[33] = test system: SK-OV-3
[34] = test system: DU-145
[35] = test system: 786-0
[36] = test system: SNB-75
[37] = test system: M14
[38] = test system: UO-31
[39] = test system: SF-295
[40] = test system: BT-549
[41] = test system: T47D
[42] = test system: COLO 205
[43] = test system: HOP-92
[44] = test system: CAKI-1
[45] = test system: Hs-578T
[46] = test system: OVCAR-3
[47] = test system: SF-268
[48] = test system: HCT-116
[49] = test system: HOP-62
[50] = test system: IGROV-1
[51] = test system: NCI-H23
[52] = test system: HL-60
[53] = test system: RXF 393
[54] = test system: NCI/ADR-RES
[55] = test system: SN12C
[56] = test system: OVCAR-5

In the case of `Cc1ccc2nc(-c3ccc(NC(=O)c4ccc(N)cc4)c(S(=O)(=O)O)c3)sc2c1`, the GI50 [1] is reported as > 100 µM (inactive), the GI50 [2] is reported as > 100 µM and the GI50 [3] is reported as > 100 µM (inactive). For the same molecule, the GI50 [4] was > 100 µM (inactive), the GI50 [5] was > 100 µM (inactive) and the GI50 [6] was > 100 µM (inactive). The GI50 [7] was > 100 µM (inactive), the GI50 [8] was > 100 µM (inactive) and the GI50 [9] was > 100 µM (inactive). For the same molecule, the GI50 [10] was > 100 µM (inactive), the GI50 [11] was > 100 µM (inactive) and the GI50 [12] was > 100 µM (inactive). For the same molecule, the GI50 [13] was > 100 µM (inactive), the GI50 [14] was > 100 µM (inactive) and the GI50 [15] was > 100 µM (inactive). The GI50 [16] was > 100 µM (inactive), the GI50 [17] was > 100 µM (inactive) and the GI50 [18] was > 100 µM (inactive). The GI50 [19] was > 100 µM (inactive), the GI50 [20] was > 100 µM (inactive) and the GI50 [21] was > 100 µM (inactive). The GI50 [22] was > 100 µM (inactive), the GI50 [23] was > 100 µM (inactive) and the GI50 [24] was > 100 µM (inactive). The GI50 [25] was > 100 µM (inactive), the GI50 [26] was > 100 µM (inactive) and the GI50 [27] was > 100 µM (inactive). The GI50 [28] was > 100 µM (inactive), the GI50 [29] was > 100 µM (inactive) and the GI50 [30] was > 100 µM (inactive). The GI50 [31] was > 100 µM (inactive), the GI50 [32] was > 100 µM (inactive) and the GI50 [33] was > 100 µM (inactive). For the same molecule, the GI50 [34] was > 100 µM (inactive), the GI50 [35] was > 100 µM (inactive) and the GI50 [36] was > 100 µM (inactive). For the same molecule, the GI50 [37] was > 100 µM (inactive), the GI50 [38] was > 100 µM (inactive) and the GI50 [39] was > 100 µM (inactive). The GI50 [40] was > 100 µM (inactive), the GI50 [41] was > 100 µM (inactive) and the GI50 [42] was > 100 µM (inactive). For the same molecule, the GI50 [43] was > 100 µM (inactive), the GI50 [44] was > 100 µM (inactive) and the GI50 [45] was > 100 µM (inactive). For the same molecule, the GI50 [46] was > 100 µM (inactive), the GI50 [47] was > 100 µM (inactive) and the GI50 [48] was > 100 µM (inactive). The GI50 [49] was > 100 µM (inactive), the GI50 [50] was > 100 µM (inactive) and the GI50 [51] was > 100 µM (inactive). The GI50 [52] was > 100 µM (inactive), the GI50 [53] was > 100 µM (inactive) and the GI50 [54] was > 100 µM (inactive). The GI50 [55] was > 100 µM (inactive) and the GI50 [56] was > 100 µM (inactive).
